In patent EP2949653A1, “ISOXAZOLE DERIVATIVES AS LEUKOTRIENE BIOSYNTHESIS INHIBITORS” (Banoglu, Erden, priority 2014, dated 2015):

Key:
12-LO = target: T1, 12-LO (Homo sapiens, UniProt P18054); assay: 12-LO inhibition in A23187-stimulated neutrophils; type: cell-based; conditions: up to 10 µM in A23187-stimulated neutrophils
T1 construct: 12-LO or 15-LO, up to 10 µM in A23187-stimulated neutrophils; endogenous in cells; host or cells: A23187-stimulated neutrophils
T1 sequence (P18054 1-663): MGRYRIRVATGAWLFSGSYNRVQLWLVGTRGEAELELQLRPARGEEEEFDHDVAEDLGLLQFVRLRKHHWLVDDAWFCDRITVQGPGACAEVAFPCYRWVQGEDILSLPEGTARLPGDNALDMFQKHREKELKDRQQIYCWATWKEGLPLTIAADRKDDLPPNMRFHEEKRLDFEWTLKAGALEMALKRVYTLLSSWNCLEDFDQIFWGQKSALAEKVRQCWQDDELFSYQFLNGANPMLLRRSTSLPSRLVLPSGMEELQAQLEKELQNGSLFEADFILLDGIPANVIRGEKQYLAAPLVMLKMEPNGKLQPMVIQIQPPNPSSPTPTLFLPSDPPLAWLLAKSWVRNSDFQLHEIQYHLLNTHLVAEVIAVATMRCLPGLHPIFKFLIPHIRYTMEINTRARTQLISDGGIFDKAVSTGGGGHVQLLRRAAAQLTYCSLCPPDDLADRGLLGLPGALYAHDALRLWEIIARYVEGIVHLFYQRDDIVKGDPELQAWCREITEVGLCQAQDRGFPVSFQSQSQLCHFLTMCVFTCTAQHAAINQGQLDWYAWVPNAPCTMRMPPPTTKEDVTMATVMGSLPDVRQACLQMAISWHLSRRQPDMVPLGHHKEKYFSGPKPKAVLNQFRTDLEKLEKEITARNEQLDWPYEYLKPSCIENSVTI

PMNL = assay: Cytotoxicity to PMNL; type: cell-based; conditions: within 1 hour at 10 µM
[1] = tested on: 5-LO mediated product formation; assay: 5-LO mediated product formation in intact neutrophils stimulated with A23187 (cell-based); conditions: Homo sapiens, Neutrophil; A23187, in the presence of 20 µM to 80 µM exogenous arachidonic acid (Figure 2); read-out: IC50 5-LO mediated product formation in human neutrophils with exogenous AA
5-LO = target: T2, 5-LO (Homo sapiens, UniProt P09917); assay: 5-LO mediated product synthesis in HEK293 cells transfected with only 5-LO; type: cell-based; conditions: 2.5 µM A23187 plus 3 µM AA (Figure 7)
T2 sequence (P09917 1-674): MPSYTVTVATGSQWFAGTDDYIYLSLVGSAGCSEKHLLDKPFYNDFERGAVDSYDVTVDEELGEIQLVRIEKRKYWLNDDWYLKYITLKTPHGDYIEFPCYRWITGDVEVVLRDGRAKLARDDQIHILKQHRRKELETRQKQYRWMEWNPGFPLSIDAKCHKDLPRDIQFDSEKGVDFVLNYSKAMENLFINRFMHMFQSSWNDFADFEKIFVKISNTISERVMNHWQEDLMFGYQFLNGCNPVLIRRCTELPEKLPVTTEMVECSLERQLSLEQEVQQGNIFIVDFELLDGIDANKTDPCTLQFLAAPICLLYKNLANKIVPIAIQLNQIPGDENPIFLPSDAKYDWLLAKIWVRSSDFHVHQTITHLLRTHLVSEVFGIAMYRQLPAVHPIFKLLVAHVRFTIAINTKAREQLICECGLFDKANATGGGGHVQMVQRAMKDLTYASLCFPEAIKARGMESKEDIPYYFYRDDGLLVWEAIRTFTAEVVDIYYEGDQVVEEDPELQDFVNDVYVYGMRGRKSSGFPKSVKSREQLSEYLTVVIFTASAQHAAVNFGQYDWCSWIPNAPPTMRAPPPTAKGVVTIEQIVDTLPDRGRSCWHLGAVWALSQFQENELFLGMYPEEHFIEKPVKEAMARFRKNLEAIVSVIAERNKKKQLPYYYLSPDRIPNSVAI
Procedure: Compound 9hj inhibited 5-LO mediated product synthesis in HEK293 cells transfected with only 5-LO, with IC50 of 900 nM. […] After preincubation of cells with 9hj for 15 min at 37°C, cells were stimulated with 2.5 µM A23187 plus 3 µM AA for 10 min at 37°C. Data are expressed as percentage of vehicle control (0.1% DMSO). 100% controls correspond to 157.48 ng mL^-1 for 5-LO transfected cells and 155.15 ng mL^-1 for 5-LO plus FLAP transfected cells.

[2] = tested on: 5-LO mediated product synthesis; assay: 5-LO mediated product synthesis in monocytes stimulated with LPS plus fMLP; type: cell-based; conditions: Homo sapiens, Monocyte
[3] = tested on: 5-LO mediated product formation; assay: 5-LO mediated product formation in intact monocytes stimulated with A23187; type: cell-based; conditions: Homo sapiens, Monocyte; A23187 (2.5 µM), absence of exogenous AA (Figure 3)
Procedure: Cell based and cell-free assays carried out in biological studies, immunofluorescence microscopy analysis and zymosan-induced peritonitis in mice are performed as described hereinabove (Pegola, C. and et al., British J. Pharmacology, 2014, D01:10.1111/bph.12625). In the cell based assays (intact neutrophils or monocytes), 5-LO mediated product formation is started, after pre-incubation with test compounds (or control DMSO) for 15 min. at 37 °C, with addition of Ca-ionophore A23187 (2.5 µM) to the fresh 5 x 10^6 neutrophils or monocytes suspended in 1 ml of PGC buffer (phosphate buffered saline (PBS) solution containing 1 mg ml^-1 glucose and 1mM CaCl2, pH 7.4). After the incubation for 10 min. at 37 °C, the reaction is ended with addition of 1 ml of methanol, and 30 µL 1 N HCl, 200 ng prostaglandin B1 and 500 µL PBS are added to the mixture. […] Resulting 5-LO mediated products are extracted and analysed by the known method of high pressure liquid chromatography (HPLC) (Pergola, C. Proc Natl. Acad. Sci. U.S.A. 2008, 105, 19881). 5-LO mediated product formation (LTB4 and all trans isomers, and 5 (S)-hydro(pero)xy-6-trans-8, 11, 14-cis-eicosatetraenoic acid, 5-H(p)ETE) is expressed as ng per 10^6 cell. Cysteinyl-LTs have not been analyzed because that the amount of C4, D4 and E4 and LTB4 oxidation products are below the detection limit. […]

- inhibition of 12-LO (12-LO): did not inhibit
- IC50 [1]: 0.17 to 0.35 µM
- IC50 (5-LO): 0.9 µM
- IC50 [2]: 0.008 µM
- IC50 [3]: 0.005 µM
Structure (SMILES): O=C(O)c1noc(-c2ccc(OCc3ccc4ccccc4n3)cc2)c1-c1ccc(Cl)cc1 [Compound 9hj, 4-(4-Chlorophenyl)-5-(4-(quinolin-2-ylmethoxy)phenyl)isoxazole-3-carboxylic acid]
- cytotoxicity to PMNL (PMNL): not cytotoxic
